Results taken from patent US7470724B2, “Phosphonate compounds having immuno-modulatory activity” (Gilead Sciences, Inc., priority 2003, dated 2008).

Assay: Pro-drug cleavage by human PBMC extracts
Assay type: in vitro ADME
Conditions: cleavage rate per μg protein; 30 μM substrate, pH 6.5, 37° C., 10-120 minutes; disappearance of pro-drug by HPLC at 260 nm
Procedure: Fresh human PBMCs were obtained from patients undergoing leukophoresis; cells were shipped in plasma and processed within 26 h of draw. Purification was achieved using the Ficoll-Paque method: PBMC cells were harvested by centrifugation at 1200×g for 5 minutes and washed three times by re-suspension in RBC lysis buffer (155 mM NH4Cl, 0.1 mM EDTA, 10 mM KHCO3). Washed cells were suspended in lysis buffer (0.2×10^9 cells in 1 ml of 10 mM Tris, pH 7.4, 150 mM NaCl, 20 mM CaCl2, 1 mM DTT and 1% NP40) and incubated on ice for 20 minutes. The PBMC crude extract was centrifuged at 1000×g for 30 min to remove unlysed cells and the supernatant at 100,000×g for 1 h. The 100,000×g supernatant (PBMC Extract: P0) was harvested, snap frozen in liquid nitrogen and stored at −70° C.
Reaction mixtures contained 25 mM MesNa (pH 6.5), 100 mM NaCl, 1 mM DTT, 0.1% NP-40, 30 μM substrate, and varying amounts of enzyme in a final volume of 100 μl. The enzymatic reaction is performed at 37° C. for 10-120 minutes and stopped at 3-4 individual time points by adding 180 μl of ice cold methanol. Samples are incubated @−20° C. for 30 min, and centrifuged 13,000 RPM for 30 min (@ 4° C.). The supernatant is transferred to a 96 well plate and evaporated under vacuum using a speedvac. The precipitate is dissolved in 100 μl of 20 mM CH3COONH4+5% AcCN. The disappearance of pro-drug is measured by HPLC, monitoring at 260 nm. The specific activity of the PBMC Extract against the prodrugs tested is defined as: v (cleavage rate)/μg protein=pmoles/min/μg.

Row | SMILES | Human PBMC extract specific activity
1 | CCOC(=O)C(C)NP(=O)(CCC(C)(C)CCn1cnc2c(=O)[nH]c(N)nc21)Oc1ccccc1 (stereo not shown) [Example 130-1] | 3.48 pmol/min/µg
2 | CCOC(=O)C(C)NP(=O)(CCC(C)(C)CCn1cnc2c(=O)[nH]c(N)nc21)N[C@@H](C)C(=O)OCC (stereo partly shown) [Example 130-2] | 0.65 pmol/min/µg
3 | CCOC(=O)C(C)NP(=O)(/C=C/c1ccccc1Cn1cnc2c(=O)[nH]c(N)nc21)Oc1ccccc1 (stereo not shown) [Example 133-1] | 4.9 pmol/min/µg
4 | CCOC(=O)C(C)NP(=O)(/C=C/c1ccccc1Cn1cnc2c(=O)[nH]c(N)nc21)N[C@@H](C)C(=O)OCC (stereo partly shown) [Example 133-2] | 0.38 pmol/min/µg
